Patent publication US7705032B2, “Method and composition for treating burned skin” (Lil Brat Pharmaceuticals of Marlette, MI, priority 2003, dated 2010)

Test system: sunburned skin
Assay: topical treatment of sunburned skin
Format: in vivo, human being
Conditions: compared with other anti-inflammatory drugs, such as Motrin® and Tolectin®
Excerpt: The present invention provides a method and composition for treating sunburned skin of a human being. The composition includes a mixture of indomethacin and a moisturizing lotion. […] It is believed that the skin, with the presence of the topical formulation, acts as a reservoir, absorbing large amounts of the indomethacin and slowly releasing the indomethacin into the skin and to other tissues. The skin may actually act as a depot or reservoir for the indomethacin. It is believed that the indomethacin is stabilized and solubilized by the moisturizing lotion wherein the moisturizing lotion enhances the absorption of the indomethacin through the skin and accordingly permits the drug to be employed topically for inflammation of the sunburned skin. […] This mixture level allows the Cetaphil® to act as a proper stabilizer and solubilizer for the indomethacin. A stronger or weaker indomethacin mixture may be created depending on the treatment. However, experimentation has shown that the above-noted mixture remains an effective mixture for the treatment of sunburned skin. In use, the disclosed amounts of indomethacin and Cetaphil® are mixed to create the appropriate composition. […] The moisturizing lotion provides moisture and a cooling sensation to the sunburned skin, and the indomethacin reduces the inflammation to the skin caused by the sunburn. […]

COc1ccc2c(c1)c(CC(=O)O)c(C)n2C(=O)c1ccc(Cl)cc1 [indomethacin, 1-(p-chlorobenzoyl)-5-methoxy-2-methylindole-3-acetic acid]
relieving sunburned skin: far better results
